From ChEMBL document CHEMBL5335841, “In vitro biological evaluation and in silico studies of linear diarylheptanoids from Curcuma aromatica Salisb. as urease inhibitors” (RSC Med Chem, 2024)

Legend:
[1] = Inhibition of urease (unknown origin) using urea as substrate preincubated for 30 mins followed by substrate addition and measured after 20 mins by red phenol reagent based assay
[2] = Inhibition of urease (unknown origin) at 250 uM using urea as substrate preincubated for 30 mins followed by substrate addition and measured after 20 mins by red phenol reagent based assay relative to control; settings: time 50.0 min

| SMILES | IC50 [1] | inhibition [2] |
| --- | --- | --- |
| COc1cc(CC[C@@H](O)C[C@@H](O)CCc2ccc(O)cc2)cc(OC)c1O (relative stereo) | 228 µM | – |
| COc1cc(CC[C@H](O)C[C@H](O)CCc2cc(OC)c(O)c(OC)c2)ccc1O (relative stereo) | > 250 µM | 27.3% |
| COc1cc(CC[C@@H](O)C[C@H](O)CCc2cc(OC)c(O)c(OC)c2)ccc1O (relative stereo) | > 250 µM | 14.3% |
| COc1cc(CC[C@H](C[C@H](CCc2ccc(O)cc2)OC(C)=O)OC(C)=O)cc(OC)c1O (relative stereo) | > 250 µM | 3.3% |

More lines, in order of falling IC50 [1], values ahead:

| IC50 [1] | inhibition [2] | SMILES |
| --- | --- | --- |
| 223 µM | – | COc1cc(CC[C@H](C[C@H](CCc2ccc(O)cc2)OC(C)=O)OC(C)=O)ccc1O (relative stereo) |
| 153 µM | – | COc1cc(CC[C@@H](O)C[C@@H](O)CCc2ccc(O)cc2)ccc1O (relative stereo) |
| 129 µM | – | CC(=O)O[C@H](CCc1ccc(O)c(O)c1)C[C@H](CCc1ccc(O)cc1)OC(C)=O (relative stereo) |
| 77.5 µM | – | NC(=O)NO [HYDROXYUREA] |
| 21.8 µM | – | COc1cc(CC[C@@H](O)C[C@H](O)CCc2ccc(O)c(O)c2)ccc1O (relative stereo) |
| 9.6 µM | – | Oc1ccc(CC[C@H](O)C[C@H](O)CCc2ccc(O)c(O)c2)cc1 (relative stereo) |
